Results published in ChEMBL document CHEMBL3745679, “Identification and characterization of natural microbial products that alter the free d-aspartate content of mammalian cells” (2016).
Activity calls are given as the source filed them. The calls are words filed in the database; no cut-off is given here.

Columns and labels:
PC-12 [1] = experiment: Effect on L-aspartate biosynthesis in rat PC12 cells assessed as effect on total L-aspartate level up to 10 uM after 24 hrs by O-phthalaldehyde/N-acetyl-L-cysteine derivatization technique-based HPLC analysis; type: functional, cell-based
PC-12 [2] = experiment: Inhibition of D-aspartate biosynthesis in rat PC12 cells assessed as reduction of total D-aspartate content at 10 uM measured at 1 to 3 hrs by O-phthalaldehyde/N-acetyl-L-cysteine derivatization technique-based HPLC analysis relative to vehicle-treated control; type: functional, cell-based
PC-12 [3] = experiment: Inhibition of D-aspartate biosynthesis in rat PC12 cells assessed as reduction of D-aspartate level in cell culture medium up to 10 uM after 24 hrs by O-phthalaldehyde/N-acetyl-L-cysteine derivatization technique-based HPLC analysis; type: functional
PC-12 [4] = experiment: Inhibition of D-aspartate biosynthesis in rat PC12 cells assessed as reduction of intracellular D-aspartate content at 10 uM measured at 1 hr by O-phthalaldehyde/N-acetyl-L-cysteine derivatization technique-based HPLC analysis relative to vehicle-treated control; type: functional, cell-based
PC-12 [5] = experiment: Effect on L-aspartate biosynthesis in rat PC12 cells assessed as effect on L-aspartate level in cell culture medium up to 10 uM after 24 hrs by O-phthalaldehyde/N-acetyl-L-cysteine derivatization technique-based HPLC analysis; type: functional
PC-12 [6] = experiment: Inhibition of D-aspartate biosynthesis in rat PC12 cells assessed as reduction of total D-aspartate content at 10 uM measured at 6 to 16 hrs by O-phthalaldehyde/N-acetyl-L-cysteine derivatization technique-based HPLC analysis relative to vehicle-treated control; type: functional, cell-based
PC-12 [7] = experiment: Inhibition of D-aspartate biosynthesis in rat PC12 cells assessed as reduction of intracellular D-aspartate content at 10 uM measured at 3 to 16 hrs by O-phthalaldehyde/N-acetyl-L-cysteine derivatization technique-based HPLC analysis relative to vehicle-treated control; type: functional, cell-based
PC-12 [8] = experiment: Inhibition of D-aspartate biosynthesis in rat PC12 cells assessed as reduction of intracellular D-aspartate level up to 10 uM after 24 hrs by O-phthalaldehyde/N-acetyl-L-cysteine derivatization technique-based HPLC analysis; type: functional, cell-based
PC-12 [9] = experiment: Effect on L-aspartate biosynthesis in rat PC12 cells assessed as effect on intracellular L-aspartate level up to 10 uM after 24 hrs by O-phthalaldehyde/N-acetyl-L-cysteine derivatization technique-based HPLC analysis; type: functional, cell-based
PC-12 [10] = experiment: Inhibition of D-aspartate biosynthesis in rat PC12 cells assessed as reduction of total D-aspartate level after 24 hrs by O-phthalaldehyde/N-acetyl-L-cysteine derivatization technique-based HPLC analysis; type: functional, cell-based
HEK293 = experiment: Increase in intracellular D-aspartate content in HEK293 cells at 5 ug after 24 hrs by O-phthalaldehyde/N-acetyl-L-cysteine derivatization technique-based HPLC analysis relative to total aspartate (reference value: 7.38 +/- 1.9%); type: functional, Homo sapiens
PC-12 [11] = experiment: Effect on L-aspartate biosynthesis in rat PC12 cells assessed as effect on intracellular L-aspartate content up to 0.5 uM after 24 hrs by O-phthalaldehyde/N-acetyl-L-cysteine derivatization technique-based HPLC analysis; type: functional, cell-based
PC-12 [12] = experiment: Effect on L-aspartate biosynthesis in rat PC12 cells assessed as effect on total L-aspartate content up to 0.5 uM after 24 hrs by O-phthalaldehyde/N-acetyl-L-cysteine derivatization technique-based HPLC analysis; type: functional, cell-based
PC-12 [13] = experiment: Inhibition of D-aspartate biosynthesis in rat PC12 cells assessed as reduction of intracellular D-aspartate content up to 0.5 uM after 24 hrs by O-phthalaldehyde/N-acetyl-L-cysteine derivatization technique-based HPLC analysis; type: functional, cell-based
PC-12 [14] = experiment: Inhibition of D-aspartate biosynthesis in rat PC12 cells assessed as reduction of total D-aspartate level up to 0.5 uM after 24 hrs by O-phthalaldehyde/N-acetyl-L-cysteine derivatization technique-based HPLC analysis; type: functional, cell-based
PC-12 [15] = experiment: Inhibition of D-aspartate biosynthesis in rat PC12 cells assessed as reduction of total D-aspartate content at 0.2 uM measured at 1 to 6 hrs by O-phthalaldehyde/N-acetyl-L-cysteine derivatization technique-based HPLC analysis relative to vehicle-treated control; type: functional, cell-based
PC-12 [16] = experiment: Inhibition of D-aspartate biosynthesis in rat PC12 cells assessed as reduction of intracellular D-aspartate level after 24 hrs by O-phthalaldehyde/N-acetyl-L-cysteine derivatization technique-based HPLC analysis; type: functional, cell-based
PC-12 [17] = experiment: Effect on L-aspartate biosynthesis in rat PC12 cells assessed as effect on L-aspartate level in cell culture medium up to 0.2 uM after 24 hrs by O-phthalaldehyde/N-acetyl-L-cysteine derivatization technique-based HPLC analysis; type: functional
PC-12 [18] = experiment: Inhibition of D-aspartate biosynthesis in rat PC12 cells assessed as reduction of D-aspartate content in cell culture medium at 0.2 uM measured at 6 to 12 hrs by O-phthalaldehyde/N-acetyl-L-cysteine derivatization technique-based HPLC analysis relative to vehicle-treated control; type: functional
PC-12 [19] = experiment: Inhibition of D-aspartate biosynthesis in rat PC12 cells assessed as reduction of D-aspartate level in cell culture medium after 24 hrs by O-phthalaldehyde/N-acetyl-L-cysteine derivatization technique-based HPLC analysis; type: functional
PC-12 [20] = experiment: Inhibition of D-aspartate biosynthesis in rat PC12 cells assessed as reduction of total D-aspartate content at 0.2 uM measured at 16 hrs by O-phthalaldehyde/N-acetyl-L-cysteine derivatization technique-based HPLC analysis relative to vehicle-treated control; type: functional, cell-based
PC-12 [21] = experiment: Effect on L-aspartate biosynthesis in rat PC12 cells assessed as effect on total L-aspartate level up to 0.2 uM after 24 hrs by O-phthalaldehyde/N-acetyl-L-cysteine derivatization technique-based HPLC analysis; type: functional, cell-based
PC-12 [22] = experiment: Effect on L-aspartate biosynthesis in rat PC12 cells assessed as effect on intracellular L-aspartate level up to 0.2 uM after 24 hrs by O-phthalaldehyde/N-acetyl-L-cysteine derivatization technique-based HPLC analysis; type: functional, cell-based
PC-12 [23] = experiment: Inhibition of D-aspartate biosynthesis in rat PC12 cells assessed as effect on intracellular D-aspartate content at 0.2 uM incubated up to 16 hrs by O-phthalaldehyde/N-acetyl-L-cysteine derivatization technique-based HPLC analysis relative to vehicle-treated control; type: functional, cell-based

SMILES: COC1=C2C[C@@H](C)C[C@H](OC)[C@H](O)[C@@H](C)/C=C(\C)[C@H](OC(N)=O)[C@@H](OC)/C=C\C=C(/C)C(=O)NC(=CC1=O)C2=O [GELDANAMYCIN]
- Activity (PC-12 [1]): inactive
- inhibition (PC-12 [2]): inactive
- inhibition (PC-12 [3]): Active
- inhibition (PC-12 [4]): inactive
- Activity (PC-12 [5]): inactive
- inhibition (PC-12 [6]): Active
- inhibition (PC-12 [7]): Active
- inhibition (PC-12 [8]): Active
- Activity (PC-12 [9]): inactive
- inhibition (PC-12 [10]): Dose-dependent effect
- Activity (HEK293): 15.8%

SMILES: CC(C)[C@H]1CC[C@@]2(CO2)[C@H]2C(=O)OCC(C(=O)O)=C[C@H]12
- Activity (PC-12 [11]): inactive
- Activity (PC-12 [12]): inactive
- Activity (HEK293): 0.291%
- inhibition (PC-12 [13]): inactive
- inhibition (PC-12 [14]): inactive

SMILES: CO[C@@H](C(=O)[C@H](O)[C@@H](C)O)[C@H]1Cc2cc3cc(O[C@H]4C[C@@H](O[C@@H]5C[C@H](O)[C@@H](O)[C@H](C)O5)[C@H](O)[C@@H](C)O4)c(C)c(O)c3c(O)c2C(=O)[C@@H]1O[C@H]1C[C@@H](O[C@@H]2C[C@H](O[C@H]3C[C@](C)(O)[C@H](O)[C@@H](C)O3)[C@@H](O)[C@H](C)O2)[C@H](O)[C@@H](C)O1
- inhibition (PC-12 [15]): inactive
- inhibition (PC-12 [16]): Dose-dependent effect
- Activity (PC-12 [17]): inactive
- inhibition (PC-12 [18]): Active
- inhibition (PC-12 [19]): Dose-dependent effect
- inhibition (PC-12 [20]): Active
- Activity (PC-12 [21]): inactive
- Activity (HEK293): 9.33%
- Activity (PC-12 [22]): inactive
- inhibition (PC-12 [23]): inactive
